According to US11299482B2, “Salt and crystal form of modified andrographolide compound and preparation method thereof” (HEILONGJIANG ZHENBAODAO PHARMACEUTICAL CO, LTD, priority 2017, dated 2022):
One block for each compound: values may come before it.

Columns and labels:
[1] = Study on polymorphism of the compound of Formula (II) (stirring in solvent, XRPD); type: physicochemical; conditions: stirred at 40° C. for 2 days in the dark
Experimental: The compound of Formula (II) was dissolved in a corresponding solvent and stirred at 40° C. for 2 days in the dark. The solution was then centrifuged to obtain a precipitate which was dried and subjected to XRPD detection.

[2] = test system: left unilateral pulmonary fibrosis; test: SD rat model of left unilateral pulmonary fibrosis; type: in vivo
[3] = test system: IL-6 release from mouse spleen cells; test: LPS-induced release of IL-6 from mouse spleen cells (CBA); type: cell-based; conditions: 24 hours, read-out: Inhibition rate, IL-6 (Th1)
Excerpt: (§1) Evaluate the inhibitory effect of the compound on LPS-induced release of cytokines involved in the Th1 pathway such as TNF-α and IL-6 from mouse spleen cells by measuring the levels of the cytokines involved in the Th1 pathway such as TNF-α and IL-6 in the culture supernatant of mouse spleen cells. Cells: spleen cells isolated from the spleens of normal C57BL/6 mice 1) The mice were sacrificed under aseptic conditions, and the spleens were collected and ground in a filter having a pore size of 70 μm. The obtained cell suspension was collected. 6) The cells were added to a 96-well plate (100 μL/well, 1×10^5 cells/well); LPS was formulated with culture medium into a 4 μg/ml solution, and then the solution was added to the cell culture well at 50 μl per well. The compound was dissolved in DMSO to give a solution of 100 mM, and then the solution was diluted with DMSO to obtain 3 gradients, which were 30 mM, 10 mM, and 3 mM, respectively. For each gradient, 4 μl of the solution was added to 1 ml of culture medium to form a mixture with a concentration of 120 μM, 40 μM, or 12 μM, respectively. 50 μl of the mixture was added to a corresponding well to a final concentration of 30 μM, 10 μM, or 3 μM, respectively. […] Then, the supernatant was collected, and the levels of TNF-α and IL-6 therein were detected by CBA.

[4] = test system: IL-13 release from mouse spleen cells; test: Release of IL-13 (Th2 pathway) from mouse spleen CD4+ T cells (CBA); type: cell-based; conditions: Th2 induction, 72 hours, read-out: Inhibition rate, IL-13 (Th2)
Experimental: Evaluate the inhibitory effect of the compound on LPS-induced release of cytokines involved in the Th2 pathway such as IL-13 from mouse spleen cells by measuring the levels of cytokines involved in the Th2 pathway such as IL-13 in the culture supernatant of mouse spleen cells. Cells: CD4+ cells isolated and sorted from the spleens of normal C57BL/6 mice The anti-mouse CD3 antibody diluted to 5 μg/mL with DPBS was added to a 96-well plate at 100 μL/well. The culture plate was allowed to stand at 4° C. overnight; 6) CD4+ T cells were isolated by using the Mouse CD4+ T Cell Isolation Kit, and the isolated cells were adjusted to a concentration of […]; 8) The isolated CD4+ T cells were added to the wells coated with the anti-CD3 antibody at 50 μL/well, i.e. 1×10^5 cells/well; and meanwhile, the CD4+ T cells were added to un-coated wells in the same amount, as a negative control; The mouse anti-IFNγ antibody and anti-IL-12 antibody were simultaneously added to the culture medium both at a concentration of 40 μg/mL, and mouse IL-4 was added thereto at a concentration of 40 ng/mL. An induction solution was prepared and added to the wells that had been plated with cells and coated with anti-CD3 antibody at 50 μL/well. […] Then, the supernatant was collected, and the level of IL-13 therein was detected by CBA.

[5] = test system: IL-2 release from mouse spleen cells; test: Release of IL-2 from anti-CD3 stimulated mouse spleen cells (CBA); type: cell-based; conditions: anti-CD3, 24 hours, read-out: Inhibition rate, IL-2 (Th1)
Experimental: (§2) Evaluate the inhibitory effect of the compound on the release of cytokines involved in the Th1 pathway such as IFN-γ and IL-2 from mouse spleen cells by measuring the levels of cytokines involved in the Th1 pathway such as IFN-γ and IL-2 in the culture supernatant of mouse spleen cells. Cells: spleen cells isolated from the spleens of normal C57BL/6 mice The anti-mouse CD3 antibody diluted to 5 μg/mL with DPBS was added to a 96-well plate at 100 μL/well. The culture plate was allowed to stand at 4° C. overnight; 1) The mice were sacrificed under aseptic conditions, and the spleens were collected and ground in a filter having a pore size of 70 μm. The obtained cell suspension was collected. 2) The cells were added to the wells coated with the anti-mouse CD3 antibody at 50 μL/well, i.e. 1×10^5 cells/well; and meanwhile, the cells were added to un-coated wells in the same amount, as a negative control; The compound was dissolved in DMSO to give a solution of 100 mM, and then the solution was diluted with DMSO to obtain 3 gradients, which were 30 mM, 10 mM, and 3 mM, respectively. For each gradient, 4 μl of the solution was added to 1 ml of culture medium to form a mixture with a concentration of 120 μM, 40 μM, or 12 μM, respectively. […] Then, the supernatant was collected, and the levels of IFN-γ and IL-2 therein were detected by CBA.

[6] = test system: IFN-γ release from mouse spleen cells; test: Release of IFN-γ from anti-CD3 stimulated mouse spleen cells (CBA); type: cell-based; conditions: anti-CD3, 24 hours, read-out: Inhibition rate, IFN-γ (Th1)
Experimental: as §2

[7] = test system: TGF-β release from mouse peritoneal macrophages; test: Release of TGF-β from mouse peritoneal macrophages (ELISA); type: cell-based; conditions: Peritoneal macrophage, 24 hours, read-out: Inhibition rate, fibrosis factor TGF-β
Experimental: Evaluate the inhibitory effect of the compound on the release of TGF-β from mouse peritoneal macrophages by measuring the level of TGF-β in the culture supernatant of mouse peritoneal macrophages. Cells: Macrophages collected by peritoneal lavage of normal Balb/c mice 7) The macrophages were added to a 48-well plate at 250 μL/well, i.e. 4×10^5 cells/well; 2) A stimulating solution containing TNFα and IL-13 both at a concentration of 80 ng/mL was prepared with serum-free medium, and added to the wells plated with cells at 125 μL/well. Three wells were left without the addition of the stimulating solution and used as a blank control; The compound was dissolved in DMSO to give a solution of 100 mM, and then the solution was diluted with DMSO to obtain 3 gradients, which were 30 mM, 10 mM, and 3 mM, respectively. For each gradient, 4 μl of the solution was added to 1 ml of culture medium to form a mixture with a concentration of 120 μM, 40 μM, or 12 μM, respectively. 125 μl of the mixture was added to a corresponding well to a final concentration of 30 μM, 10 μM, or 3 μM, respectively. Dexamethasone was added as a positive drug to a separate well containing cells at a final concentration of 100 nM. […] Then, the supernatant was collected, and the level of TGF-β therein was detected by ELISA.

[8] = test system: TNF-α release from mouse spleen cells; test: LPS-induced release of TNF-α from mouse spleen cells (CBA); type: cell-based; conditions: 24 hours, read-out: Inhibition rate, TNF-α (Th1)
Excerpt: as §1

[9] = test system: IL-6 release from THP-1 cells; test: LPS-induced release of IL-6 from THP-1 cells (CBA); type: cell-based; conditions: Homo sapiens, LPS-stimulated THP-1 cells, 24 hours, read-out: Inhibition rate @10 uM (IL-6)
Experimental: Evaluate the inhibitory effect of the compound on LPS-induced release of IL-6 from THP-1 cells by measuring the level of IL-6 in the cell culture supernatant.
Cell line: THP-1 cell line
4) THP-1 cells were diluted with culture medium to 5×10^5 cells/mL and the diluted cells were added to a 96-well plate (100 μl/well, […]);
1) The compound was dissolved in DMSO to give a solution of 30 mM, and then the solution was 3-fold diluted with DMSO into 4 gradients, which were 30 mM, 10 mM, 3 mM, and 1 mM, respectively. For each gradient, 4 μl of the solution was added to 1 ml of culture medium to form a mixture with a concentration of 120 uM, 40 uM, 12 uM, or 4 uM, respectively. Then, 50 ul of the mixture was added to a well containing cells to a final concentration of 30 uM, 10 uM, 3 uM, or 1 uM, respectively. Dexamethasone was added as a positive drug to a separate well containing cells at a final concentration of 100 nM.
1 mg/ml of a LPS solution was diluted to 800 ng/ml with culture medium, and the diluted solution was added to the cell culture well at 50 ul per well.
The cell culture plate was placed in a 37° C. incubator and incubated for 24 hours. Then, the supernatant was collected, and the level of IL-6 therein was detected by CBA.

[10] = Solid physical stability test of Crystal Form A under different temperature, humidity and light conditions; type: physicochemical; conditions: Day 10
Experimental: The vial was sealed with aluminum-foil paper which was punched to generate some small holes to ensure that the sample could fully contact with the ambient air. The 4 samples as prepared were placed under conditions of 25° C./92.5% relative humidity, 60° C., 40° C./75%, and light. The physical stability of the samples on day 10 was examined. […] On day 10, all samples were taken and returned to room temperature. The appearance change of the samples was observed, and the crystal form of the samples was examined by XRPD.

[11] = Solid stability test of Crystal Form A under high temperature and high humidity conditions; type: physicochemical
Experimental: The vial was sealed with aluminum-foil paper which was punched to generate some small holes to ensure that the sample could fully contact with the ambient air. The vial was placed in a chamber with a constant temperature and humidity of 40° C. and 75%. Samples were placed under the above conditions and tested on day 5 and day 10. The test results were compared with the initial test results as measured on day 0.

[12] = 25° C./92.5% relative humidity (open)
[13] = 40° C./75% relative humidity (open)
[14] = stored at −20° C. in a confined space (control sample)
[15] = 40° C. and 75% humidity, open, day 5
[16] = 40° C. and 75% humidity, open, day 10

Crystal form ([1]; Ethanol): Crystal Form A
Crystal form ([1]; Methanol): Crystal Form A
Compound: C=C1CCC2[C@]3(C)CO[C@@H](C4CCCC4)O[C@@H]3CC[C@@]2(C)[C@@H]1CCOC1CCN(C)CC1.O=C(O)CC(O)(CC(=O)O)C(=O)O (stereo in doubt) [compound of Formula (II)]
Inhibitory effect on IPF [2]: significant inhibitory effect
inhibition at 10 µM [3]: 48%
inhibition at 10 µM [4]: 99.9%
inhibition at 10 µM [5]: 78.2%
inhibition at 10 µM [6]: 85.3%
inhibition at 10 µM [7]: 51%
inhibition at 30 µM [8]: 40.3%

Compound: C=C1CCC2[C@]3(C)CO[C@@H](C4CCCC4)O[C@@H]3CC[C@@]2(C)[C@@H]1CCOC1CCN(C)CC1 (some centres unmarked) [Compound h]
inhibition at 10 µM [9]: > 60%

Characters [10, 12]: Off-white powder
Crystal form [10, 12]: Crystal Form A
Characters [10, 13]: Off-white powder
Crystal form [10, 13]: Crystal Form A
Characters ([10]; 60° C. (open)): Off-white powder
Crystal form ([10]; 60° C. (open)): Crystal Form A
Characters ([10]; light): Off-white powder
Crystal form ([10]; light): Crystal Form A
Characters [10, 14]: Off-white powder
Crystal form [10, 14]: Crystal Form A
Appearance [11, 15]: Off-white powder
Crystal form [11, 15]: Crystal Form A
Purity (%) [11, 15]: 98.37%
Total impurities (%) [11, 15]: 1.61%
Appearance [11, 16]: Off-white powder
Crystal form [11, 16]: Crystal Form A
Purity (%) [11, 16]: 98.45%
Total impurities (%) [11, 16]: 1.55%
Appearance ([11]; day 0 (initial)): Off-white powder
Crystal form ([11]; day 0 (initial)): Crystal Form A
Purity (%) ([11]; day 0 (initial)): 98.51%
Total impurities (%) ([11]; day 0 (initial)): 1.49%
Compound: C=C1CCC2[C@]3(C)CO[C@@H](C4CCCC4)O[C@@H]3CC[C@@]2(C)[C@@H]1CCOC1CCN(C)CC1.O=C(O)CC(O)(CC(=O)O)C(=O)O (some centres unmarked) [Crystal Form A]
